Results published in PubChem BioAssay (NCI).
Where “and” joins values, the source holds several entries; their conditions need not be identical. Identical values can stand only once.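 Method: 48-hour compound exposure of cells in 96-well plates, five concentrations, linear interpolation of endpoints. Here, GI50 denotes the concentration required for 50% inhibition of growth. At the TGI there is no net growth.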

Tests used:
Test in all cases: NCI tumour cell line growth inhibition, 48 h
SF-539 CNS = system: SF-539 CNS
OVCAR-4 ovarian = system: OVCAR-4 ovarian
CCRF-CEM leukemia = system: CCRF-CEM leukemia
UACC-62 melanoma = system: UACC-62 melanoma
A498 renal = system: A498 renal
SK-MEL-5 melanoma = system: SK-MEL-5 melanoma
UO-31 renal = system: UO-31 renal
SK-MEL-28 melanoma = system: SK-MEL-28 melanoma
OVCAR-8 ovarian = system: OVCAR-8 ovarian
SF-268 CNS = system: SF-268 CNS

Compound | GI50 (SF-539 CNS) | TGI (SF-539 CNS) | TGI (OVCAR-4 ovarian) | TGI (CCRF-CEM leukemia) | TGI (UACC-62 melanoma) | TGI (A498 renal) | TGI (SK-MEL-5 melanoma) | GI50 (UO-31 renal) | TGI (UO-31 renal) | GI50 (SK-MEL-28 melanoma) | TGI (SK-MEL-28 melanoma) | TGI (OVCAR-8 ovarian) | TGI (SF-268 CNS) | GI50 (SF-268 CNS) | GI50 (OVCAR-4 ovarian) | GI50 (A498 renal) | GI50 (SK-MEL-5 melanoma) | GI50 (OVCAR-8 ovarian)
O=[N+]([O-])c1cccc2nc3ccccc3c(NCCNCCO)c12 | 0.0116 µM | 0.136 µM and 0.0384 µM | 0.0162 µM | 0.101 µM and 0.0455 µM | 0.0315 µM and 0.0174 µM | 0.0264 µM | 0.00391 µM | 0.0448 µM | 0.392 µM and 0.192 µM | 0.0239 µM | 0.177 µM and 0.202 µM | 0.158 µM and 0.0328 µM | – | – | – | – | – | –
CCCCCC(/C=N/NC(N)=S)C(O)(C(F)(F)F)C(F)(F)F (stereo not drawn) | – | > 10 µM | > 10 µM | > 10 µM | > 10 µM | > 10 µM | > 10 µM | – | – | – | > 10 µM | > 10 µM | > 10 µM | – | – | – | – | –
c1ccc(-c2cc(-c3cc(-c4ccccc4)n[nH]3)[nH]n2)cc1 | – | > 100 µM | > 100 µM | > 100 µM | > 100 µM | > 100 µM | > 100 µM | – | > 100 µM | – | – | > 100 µM | > 100 µM | – | – | – | – | –
NNC(=O)CCCCCCCC(=O)O | – | > 100 µM | > 100 µM | > 100 µM | > 100 µM | > 100 µM | > 100 µM | – | > 100 µM | – | > 100 µM | > 100 µM | – | – | – | – | – | –
O=C1NC(N/N=C/C(O)C(O)C(O)C(O)CO)=N/C1=C\c1cccs1 (stereo not drawn) | – | > 100 µM | > 100 µM | > 100 µM | > 100 µM | > 100 µM | > 100 µM | – | – | – | > 100 µM | > 100 µM | > 100 µM | – | – | – | – | –
N#Cc1nsnc1-c1nc(-c2nsnc2C#N)nc(-c2nsnc2C#N)n1 | – | > 100 µM | > 100 µM | – | > 100 µM | > 100 µM | > 100 µM | – | > 100 µM | – | > 100 µM | > 100 µM | > 100 µM | – | – | – | – | –
COc1ccc(NC(C)=O)c(C(=O)CCNC(C)=O)c1 | – | > 100 µM | > 100 µM | > 100 µM | > 100 µM | > 100 µM | > 100 µM | – | > 100 µM | – | – | > 100 µM | > 100 µM | – | – | – | – | –
CN(C)CCCNC(=O)CNC(=O)c1cc(NC(=O)c2cc(NC(=O)c3cc(NC(=O)CCNC(=O)c4cc(NC(=O)c5cc(NC(=O)c6nccn6C)cn5C)cn4C)cn3C)cn2C)cn1C | – | > 100 µM | > 100 µM | 49.2 µM | – | > 100 µM | > 100 µM | – | > 100 µM | – | > 100 µM | > 100 µM | > 100 µM | – | – | – | – | –
CC1(C)OC2CN(C(=O)OCc3ccccc3)C(CO)C2O1 (stereo not drawn) | – | > 100 µM | > 100 µM | – | > 100 µM | > 100 µM | > 100 µM | – | > 100 µM | – | > 100 µM | > 100 µM | > 100 µM | – | – | – | – | –
C/C=C/OC1C(C2COC(C)(C)O2)OC2OC(C)(C)OC21 (stereo not drawn) | – | > 100 µM | > 100 µM | > 100 µM | – | > 100 µM | > 100 µM | – | > 100 µM | – | > 100 µM | > 100 µM | > 100 µM | – | – | – | – | –
CC1(C)SC2C(NC(=O)Cc3ccccc3)C(=O)N2C1C(=O)O (stereo not drawn) | – | > 100 µM | > 100 µM | – | > 100 µM | > 100 µM | > 100 µM | – | > 100 µM | – | > 100 µM | > 100 µM | > 100 µM | – | – | – | – | –
CC1(C)OC[C@@]2([C@@H]3CC[C@@H](C3)C2(C)C)N1O | – | > 100 µM | > 100 µM | > 100 µM | > 100 µM | > 100 µM | > 100 µM | – | – | – | > 100 µM | > 100 µM | > 100 µM | – | – | – | – | –
FC(F)(F)C1(C(F)(F)F)OC(Cl)(Cl)C(Cl)(Cl)O1 | – | > 10 µM | > 10 µM | – | > 10 µM | > 10 µM | > 10 µM | – | – | – | > 10 µM | > 10 µM | > 10 µM | – | – | – | – | –
CC1(C)N=C(N)N=C(N)N1c1ccc(CCCCc2ccc(Cl)cc2Cl)cc1 | – | 8.74 µM | 13.5 µM | 76 µM | – | 28.8 µM | 2.84 µM | – | 43.9 µM | – | 19.2 µM | 16.1 µM | 15.9 µM | – | – | – | – | –
C[C@@H]1CCN(C(=O)CC#N)C[C@@H]1N(C)c1ncnc2[nH]ccc12 | 39.3 µM | > 100 µM | > 100 µM | – | – | > 100 µM | > 100 µM | 31.3 µM | > 100 µM | 62.6 µM | > 100 µM | > 100 µM | > 100 µM | 73.1 µM | > 100 µM | 23.3 µM | > 100 µM | > 100 µM
O/N=C1\CC2(N3CCOCC3)CCC1(Cc1ccccc1)CC2 | – | 58.3 µM | 84.8 µM | > 100 µM | – | 88.9 µM | > 100 µM | – | > 100 µM | – | > 100 µM | 48.1 µM | 76.6 µM | – | – | – | – | –
CNS(=O)(=O)NN(C)S(=O)(=O)c1ccc(Br)cc1 | – | > 100 µM | > 100 µM | > 100 µM | > 100 µM | > 100 µM | > 100 µM | – | > 100 µM | – | – | > 100 µM | – | – | – | – | – | –
Cc1cc2nc3c(C(O)CO)nn(-c4ccccc4)c3nc2cc1C (stereo not drawn) | – | 50.2 µM | 53.4 µM | – | – | 34.9 µM | > 100 µM | – | 36.1 µM | – | 42 µM | 76.8 µM | 63.3 µM | – | – | – | – | –
CC1C=C(NCC2(CO)CCC2)NC(N)=N1 (stereo not drawn) | – | – | > 100 µM | > 100 µM | > 100 µM | > 100 µM | > 100 µM | – | > 100 µM | – | > 100 µM | > 100 µM | > 100 µM | – | – | – | – | –
